Experimental data as given in patent US20200276174A1, “CYCLIN-DEPENDENT KINASE INHIBITORS IN COMBINATION WITH ANTHRACYCLINES FOR TREATMENT OF CANCER” (TOLERO PHARMACEUTICALS, INC., priority 2018, published 2020).
“And” between values parts separate entries of the source, which are not always exact repeats. Equal values may be shown once. Read-outs that look alike come from different tables or passages of the source.

Experiments:
[1] = statement only; prodrugs described in WO 2016/187316; cited from earlier work
[2] = tested on: MCL-1 expression in MV4-11 cells; assay: MCL-1 expression during the alvocidib+cytarabine+daunorubicin regimen modeled in vitro; assay type: cell-based; details: alvocidib 80 nM, washed out prior to cytarabine (100 nM) addition, daunorubicin 3 nM, in sequence
Description: MCL-1 expression during the alvocidib+cytarabine+daunorubicin regimen was modeled in vitro. MV4-11 cells were treated with alvocidib (80 nM), cytarabine (100 nM), or daunorubicin (3 nM), in the sequence shown. Alvocidib (or palbociclib) was washed out prior to cytarabine addition.

[3] = tested on: previously untreated AML; details: for MRD− (%) / MRD−, number of patients: of all patients evaluable for response
Description: The starting dose of alvocidib is 20 mg/m^2 as a 30-minute intravenous (IV) bolus followed by 30 mg/m^2 over 4 hours as an IV infusion administered daily on Days 1-3 of induction. The dose of alvocidib administered in the IV infusion is escalated in 10 mg/m^2 increments to 60 mg/m^2 to determine the maximum tolerated dose and to identify any dose limiting toxicity.
Beginning on Day 5, cytarabine is administered as a 100 mg/m^2/day continuous IV infusion for seven consecutive days (Days 5-11) plus daunorubicin administered at a bolus dosage of 60 mg/m^2 IV on Days 5-7.
The key eligibility criteria were: ages 18-65 years, previously untreated AML, ECOG PS 0-2, and no major organ dysfunction. Treatment consisted of increasing dose levels of alvocidib starting at 20 mg/m^2 as a 30-minute IV bolus followed by 30 mg/m^2 over 4 hours on days 1-3, cytarabine 100 mg/m^2/day by continuous IV infusion on days 5-11, followed by (e.g., followed about 30 minutes later by) daunorubicin 60 mg/m^2 IV on days 5-7. Dose escalation portion was assessed by standard 3+3 design. All patients received a day 14 bone marrow biopsy. Reinduction therapy with alvocidib (same dose as induction) days 1-3, followed by cytarabine 100 mg/m^2/day continuous IV on days 5-9, and daunorubicin 45 mg/m^2 IV days 5-6 was recommended in patients with >10% and >5% cellularity and blasts, respectively.

[4] = tested on: MV4-11 AML xenograft; assay: MV4-11 AML xenograft model; assay type: in vivo, female athymic nude mice
Description: Alvocidib with a cytarabine and daunorubicin regimen were tested in vivo in the MV4-11 AML xenograft model using female athymic nude mice.
ACD (alvocidib+cytarabine+daunorubicin) is an active regimen in MV4-11 AML xenografts. (A) Tumor volume measurements show decreases following the sequential dosing of alvocidib (qdx2), cytarabine (qdx2), and daunorubicin (qdx1). This five day cycle was repeated twice. […] Doses indicated in mg/kg.
Treatment of alvocidib (1.25 mg/kg) yielded 60.0% TGI.

[5] = tested on: AML cell lines (OCI-AML3, U937, Molm-13, MV4-11); assay: 72-hour viability assay using CellTiter-Glo, single agents in AML cell lines; assay type: cell-based; details: for IC50: read-out: single agent IC50 values; for comparison of IC50s/activity across cell lines: single agent
Description: (A) OCI-AML3, (B) U937, (C) Molm-13, and (D) MV4-11 cells were treated with alvocidib, cytarabine, or daunorubicin, as single agents, in viability assays using CellTiter-Glo according to manufacturer protocol.

[6] = Intermediate- and High-risk, evaluable for MRD status N = 9, alvocidib plus 7+3
[7] = Intermediate- and High-risk, evaluable for response N = 10, alvocidib plus 7+3
[8] = Intermediate- and High-risk, alvocidib plus 7+3
[9] = 72-hour viability, CellTiter-Glo, one range printed for all three agents over OCI-AML3, U937, Molm-13, MV4-11

Q: For `CN1CC[C@H](c2c(OP(=O)(O)O)cc(O)c3c(=O)cc(-c4ccccc4Cl)oc23)[C@H](O)C1` [Structural Formula I], which oral bioavailability [1] is on record?
A: Its oral bioavailability is “orally bioavailable”.

Q: For `CN1CC[C@H](c2c(O)cc(O)c3c(=O)cc(-c4ccccc4Cl)oc23)[C@H](O)C1` [alvocidib], which MCL-1 expression [2] is on record?
A: The MCL-1 expression was “suppresses MCL-1 expression throughout the treatment regimen of cytarabine and daunorubicin”.

Q: And the “MRD− (%)” value ([3]; All Risks, alvocidib plus 7+3)?
A: Its value is “(67) %”.

Q: And the “MRD−, number of patients” value ([3]; All Risks, alvocidib plus 7+3)?
A: The value was 10/15.

Q: What about the “MRD− Evaluable, number of patients” value ([3]; All Risks, patients evaluable for MRD status N = 14, alvocidib plus 7+3) of the same molecule?
A: Its value is 10/14.

Q: And the “CR/CRi, number of patients” value ([3]; All Risks, patients evaluable for response N = 15, alvocidib plus 7+3, all dose levels)?
A: The value was 12/15 and 12.

Q: What about the “MRD− Evaluable (%)” value [3, 6] of the same molecule?
A: The value was “(56) %”.

Q: What about the “MRD− Evaluable, number of patients” value [3, 6] of the same molecule?
A: The value was 5/9.

Q: And the “CR/CRi (%)” value [3, 7]?
A: Its value is “(70) %”.

Q: What about the “CR/CRi, number of patients” value [3, 7] of the same molecule?
A: Its value is 7.

Q: What about the “MRD− (%)” value [3, 8] of the same molecule?
A: Its value is “(50) %”.

Q: And the “MRD−, number of patients” value [3, 8]?
A: Its value is 5/10.

Q: What about the “MTD, IV bolus part” value ([3]; human, in vivo, iv) of the same molecule?
A: The value was 30 mg/m^2.

Q: And the “MTD, infusion part” value ([3]; human, in vivo, iv)?
A: The value was 60 mg/m^2.

Q: What about the “MRD Status” value ([3]; per patient, alvocidib dose level 20, 30 mg/m^2 (bolus, infusion) days 1-3, then 7+3) of the same molecule?
A: Its value is “Negative”.

Q: And the “MRD Status” value ([3]; per patient, alvocidib dose level 30, 40 mg/m^2 (bolus, infusion) days 1-3, then 7+3)?
A: Its value is “Negative”.

Q: And the “Best Response” value ([3]; per patient, alvocidib dose level 30, 60 mg/m^2 (bolus, infusion) days 1-3, then 7+3, PD = progression of disease)?
A: Its value is “CRi”.

Q: And the “tumor growth inhibition (TGI)” value ([4]; alvocidib 1.25 mg/kg)?
A: Its value is 60.0%.

Q: What about the IC50 [5, 9] of the same molecule?
A: Its IC50 is 2.2 to 567 nM.

Q: Which “tumor growth inhibition (TGI)” value ([4]; single agent daunorubicin 0.5 mg/kg) does the source give for `COc1cccc2c1C(=O)c1c(O)c3c(c(O)c1C2=O)C[C@@](O)(C(C)=O)C[C@@H]3O[C@H]1C[C@H](N)[C@H](O)[C@H](C)O1` [daunorubicin] here?
A: Its value is 21.1%.

Q: What about the “comparison of IC50s/activity across cell lines” value ([5]; 72-hour viability) of the same molecule?
A: The value was “differing activities in Molm-13, in comparison to OCI-AML3”.

Q: And the IC50 ([5]; 72 h)?
A: The IC50 was 2.2 to 567 nM.

Q: Which results are given for `Nc1ccn([C@@H]2O[C@H](CO)[C@@H](O)[C@@H]2O)c(=O)n1` [cytarabine]?
A: tumor growth inhibition (TGI) ([4]; single agent cytarabine 60 mg/kg): 48.5%; IC50 [5, 9]: 2.2 to 567 nM; comparison of IC50s/activity across cell lines ([5]; 72-hour viability): differing activities in Molm-13, in comparison to OCI-AML3
